Measured values as given in PMC6273231 (Molecules, 2016).

Biological target: influenza virus neuraminidase (NA) (Influenza A virus, UniProt Q6DPL2)
Settings: enzyme inhibition assay in vitro

Sequence of influenza virus neuraminidase (NA) (Q6DPL2 whole entry, looked up): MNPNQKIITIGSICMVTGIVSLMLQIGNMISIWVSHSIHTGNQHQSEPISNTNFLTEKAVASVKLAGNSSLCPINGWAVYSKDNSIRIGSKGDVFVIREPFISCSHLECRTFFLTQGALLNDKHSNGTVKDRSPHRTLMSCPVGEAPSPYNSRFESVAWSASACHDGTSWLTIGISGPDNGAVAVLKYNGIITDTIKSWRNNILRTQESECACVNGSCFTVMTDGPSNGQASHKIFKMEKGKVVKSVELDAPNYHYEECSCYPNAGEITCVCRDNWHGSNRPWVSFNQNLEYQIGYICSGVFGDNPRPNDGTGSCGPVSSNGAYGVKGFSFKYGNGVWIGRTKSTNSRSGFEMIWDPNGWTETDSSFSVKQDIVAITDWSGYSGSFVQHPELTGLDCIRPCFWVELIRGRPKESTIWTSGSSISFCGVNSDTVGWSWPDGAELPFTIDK

Structure (SMILES) | NA inhibitory activity compared with the positive control Oseltamivir acid (in words)
O=C(OC[C@H]1O[C@@H](OC(=O)c2cc(O)c(O)c(O)c2)[C@H](OC(=O)c2cc(O)c(O)c(O)c2)[C@@H](OC(=O)c2cc(O)c(O)c(O)c2)[C@@H]1OC(=O)c1cc(O)c(O)c(O)c1)c1cc(O)c(O)c(O)c1 [pentagalloylglucose, Pentagalloyl glucose] | stronger activity against NA than Oseltamivir acid
C[C@]12C[C@@H](O)[C@@H]3C[C@@]1(O[C@@H]1O[C@H](CO)[C@@H](O)[C@H](O)[C@H]1O)[C@]3(COC(=O)c1ccccc1)C(=O)O2 [Albiflorin] | stronger activity against NA than Oseltamivir acid
C[C@@]12C[C@@]3(O)O[C@@H](O1)[C@]1(COC(=O)c4ccccc4)[C@H]3C[C@@]12O[C@@H]1O[C@H](CO)[C@@H](O)[C@H](O)[C@H]1O [Paeoniflorin] | stronger activity against NA than Oseltamivir acid
C[C@@]12C[C@@]3(O)O[C@@H](O1)[C@]1(COC(=O)c4ccccc4)[C@H]3C[C@@]12O[C@@H]1O[C@H](COC(=O)c2ccccc2)[C@@H](O)[C@H](O)[C@H]1O [Benzoylpaeoniflorin] | stronger activity against NA than Oseltamivir acid
